Test results taken from patent US20170232115A1 (priority 2011, published 2017).
No end group written: not given here.

Key:
[1] = In vitro transdermal permeation, modified Franz diffusion cells, HPLC; format: in vitro ADME, human
Procedure: Finally, a number of these cosolvent formulations were evaluated for their in vitro transdermal permeation properties (FIG. 3X2). Note that these cosolvents are also known to function as permeability enhancers in some formulations (10-1 1). For this series of experiments, human skin obtained from abdominoplastic surgery was mounted on modified Franz diffusion cells and drug permeation was determined as a function of time using high performance liquid chromatography.
The Franz diffusion cell is an essential tool in the field of transdermal drug delivery. Patient-derived skin is placed between the cell cap and the solution chamber. The cell cap is exposed to the environment allowing the stratum corneum to also be exposed to the environment. The solution chamber is filled with an isotonic diffusion buffer. Additionally the solution chamber has an injection port that allows for difhsion buffer to be removed without disturbing the setup. Finally, the solution chamber is surrounded by a water jacket that allows for temperature control. The Franz diffusion cell allows for in vitro studies of transdennal delivery to be carried out using physiological conditions. Note that penetration of any solute through the patient-derived skin into the difhsion buffer is equivalent to that solute reaching systemic circulation in an in vivo system. […] Determination of silica content in different layers of the skin will be determined using enzymatic tissue digestion, and inductively coupled plasma mass spectroscopy (ICP mass spec). Both the SLB and nanoporous particle core can be fluorescently tagged to allow for confocal microscopy. In addition, the skin samples can be microtomed after treatment and incubation with protocells so that they can be imaged using TEM.

[2] = cited from earlier work
[3] = target: hepatocyte growth factor receptor (c-Met) (Homo sapiens, UniProt P08581); conditions: peptide identified by phage display
Chain of hepatocyte growth factor receptor (c-Met) (P08581 25-932): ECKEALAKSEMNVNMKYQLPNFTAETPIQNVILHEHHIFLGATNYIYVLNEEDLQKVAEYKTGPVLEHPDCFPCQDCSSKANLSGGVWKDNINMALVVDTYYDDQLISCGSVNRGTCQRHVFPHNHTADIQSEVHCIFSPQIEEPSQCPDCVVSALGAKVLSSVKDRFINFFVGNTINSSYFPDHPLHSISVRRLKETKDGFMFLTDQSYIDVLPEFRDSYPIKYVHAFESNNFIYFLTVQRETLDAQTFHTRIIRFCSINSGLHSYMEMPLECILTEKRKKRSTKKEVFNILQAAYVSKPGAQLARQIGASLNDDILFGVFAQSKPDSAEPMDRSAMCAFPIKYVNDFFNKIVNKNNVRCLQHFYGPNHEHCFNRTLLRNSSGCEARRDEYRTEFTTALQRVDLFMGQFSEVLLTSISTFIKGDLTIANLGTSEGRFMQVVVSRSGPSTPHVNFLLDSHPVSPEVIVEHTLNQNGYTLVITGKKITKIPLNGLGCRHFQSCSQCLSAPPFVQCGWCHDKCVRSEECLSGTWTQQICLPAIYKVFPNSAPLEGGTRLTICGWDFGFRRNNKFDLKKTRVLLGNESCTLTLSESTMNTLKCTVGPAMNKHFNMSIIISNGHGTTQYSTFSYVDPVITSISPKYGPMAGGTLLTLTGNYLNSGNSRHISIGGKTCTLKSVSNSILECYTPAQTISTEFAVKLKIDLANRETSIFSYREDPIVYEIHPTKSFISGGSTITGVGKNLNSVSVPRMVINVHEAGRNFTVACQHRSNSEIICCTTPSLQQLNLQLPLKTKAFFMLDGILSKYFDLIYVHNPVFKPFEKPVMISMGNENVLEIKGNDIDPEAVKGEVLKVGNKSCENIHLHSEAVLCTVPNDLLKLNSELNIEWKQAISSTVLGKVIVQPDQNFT

Cc1ccc(NC(=O)c2ccc(CN3CCN(C)CC3)cc2)cc1Nc1nccc(-c2cccnc2)n1 [Imatinib]
permeability through the skin ([1]; DMSO): highest permeability | flux (rate of permeation through the skin) ([1]; DMSO formulation): 0.225 μg/cm2hr | permeation through the skin ([1]; water (pH 7) as solvent system, 24 hours): no imatinib permeated through the skin

CN1CCCC1c1cccnc1 (stereo not drawn) [Nicotine]
solubility in H2O [2]: miscible in H2O

CC(C)Cc1ccc(C(C)C(=O)O)cc1 (stereo not drawn) [ibuprofen]
solubility in H2O [2]: insoluble in H2O

ASVHFPP [MC40]
affinity for hepatocyte growth factor receptor (c-Met) [3]: nanomolar affinity
